Source: US20200023001A1, “GlycoFix (Structurally And Functionally Repaired Endothelial Glycocalyx)” (Northeastern University, priority 2018, published 2020)

Tests used:
Type in all cases: cell-based, rat
[1] = system: Cx-containing gap junctions of RFPEC; test: Lucifer Yellow scratch-loading dye transfer assay (gap junction communication)
Protocol: (§1) Cell Culture. Rat fat pad ECs (RFPEC) at passages 20 to 39 were offspring of cells isolated from rat epididymal fat pad and provided by Dr. Mia Thi of Albert Einstein College of Medicine (Bronx, N.Y.). […] The RFPECs are immortalized, making it possible to use late passages. RFPEC were seeded on 12-14-mm diameter and 0.13-0.17-mm thick glass coverslips at a seeding density of 15,000-20,000 cells/cm^2. Cells were cultured in Dulbecco's Modified Eagle Medium (DMEM, Invitrogen, USA) with 1% penicillin-streptomycin (PS) and 10% fetal bovine serum (FBS, Gibco Life Technologies). Cells were maintained in humidity at 37° C. and 5% CO2. RFPECs reached full confluence in 3 days.
(§2) Cultured RFPECs produce thick and robust GCX in this time period. At 3 days post-seeding the RFPECs' culture medium was supplemented with 1% BSA in place of FBS to stabilize the GCX during preservation and immunolabeling (described below). For enzyme treatment experiments, 25 micro-international units per milliliter (μIU/ml) of heparinase III (Hep III; IBEX, Canada) were added to BSA-containing culture media for 2 hours to degrade HS from the GCX [46]. HepIII was washed out, and the wash-out was followed by a 16-hour incubation of RFPECs in regular BSA-containing media. In self-recovery experiments, RFPEC GCX was left to recover for 24 hours after enzyme degradation. The time frame was chosen in accordance with the 20-hour time period that is required for HS restoration to occur on the surface of ECs. For HS recovery experiments, exogenous HS and/or S1P were applied for 16 hours to accommodate the communication test as an assessment of functional glycocalyx recovery. […] After HS was degraded with HepIII, it was replaced by a 16-hour feeding of RFPECs with 59 μg/ml exogenous porcine mucosal HS (Celsus, Cincinnati, Ohio), based on published serum concentration of HS [43]. In sphingosine-1-phosphate experiments, culture media containing enzyme was substituted for media containing either 10 μM of S1P (Sigma-Aldrich) or a combination of 59 μg/ml of HS and 10 μM of S1P for 16 hours after enzyme degradation.
Dye transfer assay, fluorescence microscopy and image analysis. Gap junction functionality was assessed by loading Lucifer Yellow in RFPECs, using a scratch technique, and observing the extent of Lucifer Yellow transfer from loaded cells to neighboring cells (FIG. 7B). Lucifer Yellow has a molecular weight of 457.3 and can only enter cells via broken membranes or via gap junctions. The scratch loading technique involved pre-incubation of RFPECs (for 1 minute) with calcium- and magnesium-free Hanks' Balanced Salt Solution (HBSS; Life Technology) containing 5 mg/ml Lucifer Yellow dye (Life Technology). A 5-μm diameter tip scribe (Ted Pella, Inc, USA) was then used to carefully create a straight scratch in the RFPEC monolayer and to allow the dye to enter the scratched cells. After the dye was loaded, it spread via open gap junctions to adjacent intact cells, with the extent of Lucifer Yellow spread reaching a plateau by 10 minutes after loading. At that point, excess dye was washed out and RFPECs were imaged at 10× magnification (dry objective) using a Zeiss Observer Z1 fluorescence microscope. From recorded images of dye transfer after scratch loading, ImageJ randomly selected dye spread locations that would be quantified along the scratch. At those random locations, lines perpendicular to the scratch axis were drawn, and the intact fluorescent cells (scratched cells excluded) were counted. […]

[2] = system: heparan sulfate (HS) of RFPEC glycocalyx; test: HS expression (coverage) in RFPEC glycocalyx by immunofluorescence confocal microscopy (Example 1)
Protocol: as §1, §2
Immunostaining. RFPECs have high affinity to most antibodies that are available for performing immunocytochemistry. For heparan sulfate (HS), RFPEC monolayers were treated with 2% paraformaldehyde/1% glutaraldehyde in phosphate buffered saline (PBS) for fixation, treated with 2% goat serum in PBS to block non-specific ligands, and stained for three nights at 4° C. with a 1:100 10E4-epitope HS antibody (Amsbio).
As specified by the manufacturer, the HS antibody reacts with many types of heparan sulfate. The reactivity of the HS antibody is abolished after treatment with Hep III, indicating antibody specificity. […]

[3] = system: Cx43 at RFPEC borders; test: Cx43 expression at EC borders, immunostaining and confocal microscopy
Protocol: as §1, §2
As specified by the manufacturer, the HS antibody reacts with many types of heparan sulfate. The reactivity of the HS antibody is abolished after treatment with Hep III, indicating antibody specificity. For secondary detection of HS, Alexa Flour 488 conjugated goat anti-mouse IgG/IgM (H+L; Life Technologies) secondary antibody was used. RFPECs to be processed for connexin 43 (Cx43) were fixed in 4% paraformaldehyde, permeabilized in 0.2% Triton X-100 (Fisher), and blocked in 5% goat serum combined with 0.2% Triton X-100. Connexin 43 staining was performed overnight at 4° C. with 1:100 mouse monoclonal Cx43 antibody (Millipore). […] Secondary Cx43 detection was done with Alexa Flour 488 conjugated goat anti-mouse IgG. […] These controls confirmed that the staining observed in the RFPECs is not an artefact.
Confocal immunofluorescence microscopy imaging and analysis. Alexa Fluor 488 fluorescent RFPECs were mounted with Vectashield containing DAPI (Vector Labs) and imaged with a Zeiss LSM 700 laser scanning confocal microscope. HS and Cx43 were imaged at 63× magnification (oil objective) and 40× magnification (oil objective), respectively. Lasers with excitation wavelengths of 490 nm (for HS or Cx43) and 350 nm (for DAPI) were used to obtain XY-plane slices. Laser gain and transmission were kept below fluorophore saturation levels. Confocal slice intervals were 0.2 μm for HS and 0.7 μm for Cx43. […]

[4] = RFPEC, Hep III, then 16 h with or without 59 μg/ml HS and/or 10 μM S1P, mean±SEM
[5] = after Hep III, HS 59 μg/ml, S1P 10 μM

Row | Compound | effect of actin disruption on cell-to-cell movement of Lucifer Yellow dye ([1]; preliminary studies, data not shown) | Lucifer Yellow dye spread, neighboring cells receiving dye per scratch-loaded cell [1, 4] [cells] | Lucifer Yellow dye transfer, result in words (FIG. 4 legend) [1, 5] | HS expression in GCX, result in words (FIG. 2 legend) ([2]; 25 μIU/ml Hep III, HS 59 μg/ml, S1P 10 μM) | HS coverage of cell surfaces ([2]; RFPEC, Hep III 2 hours, probed 16 hours after, with or without 59 μg/ml exogenous HS and/or 10 μM S1P for the 16 hours, mean±SEM) [%] | Cx43 distribution along the perimeter of the cells [3, 4] [%] | Cx43 distribution/expression, result in words (FIG. 3 legend) [3, 5]
1 | C=C1[C@@H](C)[C@H]2[C@H](Cc3ccccc3)NC(=O)[C@]23[C@H](OC(C)=O)/C=C/[C@@](C)(O)C(=O)[C@@H](C)C/C=C/[C@H]3[C@@H]1O [cytochalasin D] | bars cell-to-cell movement of Lucifer Yellow dye | – | – | – | – | – | –
2 | CCCCCCCCCCCCC/C=C/[C@@H](O)[C@@H](N)COP(=O)(O)O [S1P, sphingosine-1-phosphate] | – | 2.06±0.08 | did not improve cell-to-cell communication | significantly recovered the expression of HS in GCX, back to baseline conditions | 71.97±5.02 | 34.81±5.16 | did not show a significant restoration of Cx43 expression
